Reference: PMC4191062, “Development of αGlcN(1↔1)αMan-Based Lipid A Mimetics as a Novel Class of Potent Toll-like Receptor 4 Agonists” (Journal of Medicinal Chemistry, 2014)
Entries after “also recorded” stand apart in the source; their conditions may differ.

What was measured:
[1] = test system: human dendritic cells; experiment: Maturation marker expression in human dendritic cells (flow cytometry); assay type: cell-based; details: hDCs, 24 h; LPS 10 ng/ml
Description: To test the impact of selected α,α-GM-LAMs 1 and 3 on maturation of human dendritic cells (hDCs), immature monocyte-derived hDCs were stimulated with 1 and 3 in a wide concentration range or with E. coli LPS as positive control. DCs are able to persistently sense pathogen-associated molecular patterns and present antigens to T lymphocytes, thereby initiating an adaptive immune response.[7]
None of the α,α-GM-LAMs exerted cytotoxic effects on DCs, as determined by propidium iodide staining (data not shown). […]
stimulatory molecules CD86 as well as the antigen presenting structures MHC class I and MHC class II, which are necessary for the induction of an adaptive immune response (SI-Figure 5). […]
up-regulation of the inhibitory B7-H1 (CD272) and Sialoadhesin (CD169), which is known to be indirectly up-regulated in DCs due to release of type-I interferons. […]
stimulator not only of the NF-κB- but also of the IRF-pathway. Stimulation of DCs with the monophosphoryl α,α- […]
SI-Figure 5. Bisphosphoryl α,α-GM-LAM 1 and monophosphoryl α,α-GM-LAM 3 induce the expression of maturation markers in human DCs. […] The cells were then harvested and the surface expression level of the indicated markers was measured by flow cytometry. […]

[2] = test system: THP-1 cells; experiment: IRF-3 and IκBα phosphorylation by western blotting in THP-1 cells; assay type: cell-based, human
Method: Supplementary SI-Figure 3
Dose-dependent responses (THP-1 cells: α,α-GM-LAM 1-3 and Re-LPS) at the concentration range 0.4 – 100 ng/ml which are presented in the Figure 5, were extended to the higher concentration range (up to 300 ng/ml).
SI-Figure 3. Dose-dependent expression of cytokines induced by α,α-GM-LAM 1-3 in macrophage cell line THP-1 compared to E. coli Re-LPS at the concentration range 0.4 – 300 ng/ml. (A) Production of TNF-α; (B) Induction of […]
Supplementary SI-Figure 4
Lipid A mimetic 1 was examined for the activation of NF-κB (Nuclear factor kappaB) and IRF3
(Interferon regulatory factor 3). IRF3 activation […]
noticeable after 1h stimulation, though was
LPS. At 1h stimulation the α,α-GM-LAM 1 was […]
whereas at 3h simulation compound 1 (at a […]
stronger phosphorylation of IκBa (P-IκBa levels) as well as the higher levels of IκBa (reflecting the NF-κB dependent re-synthesis of IκB following its
Thus, IRF3 activation and NF-κB activation […]
degradation and its NF-κB dependent resynthesis) […]
compared to LPS after 3h stimulation.
SI-Figure 4. NF-κB and IRF-3 activation by LPS and α,α-GM-LAM 1 in macrophage-like cell line THP-1. THP-1 cells were treated for 1 h (upper panel) or for 3 h (lower panel) with 1 or with E. coli O111:B4 LPS at the concentrations 10, 100 and 1000 ng/ml. Non treated cells (NT) or cells treated with DMSO were used as controls.
Cell extracts were separated by SDS polyacrylamide gel electrophoresis. Phosphorylated or total IRF-3 and IκBα was detected by western blotting as indicated. Actin detection was used as a control for equal loading in each line. […]
Supplementary SI-Figure 6
The relative contribution of hydrophobic (acyl chains of Lipid A) and electrostatic (phosphate groups of Lipid A) interactions at the dimerization interface of two TLR4·MD-2·LPS complexes as well as the impact of the molecular shape of MD-2–bound Lipid A on the initiation of TLR4-mediated immune response remains largely unknown. […]

Structure (SMILES)	DCs maturation and up-regulation of CD86, MHC class I and MHC class II compared to LPS [1]	activation of NF-κB compared with LPS ([2]; THP-1, 1 h stimulation)	IRF3 activation (IRF-3 phosphorylation) ([2]; THP-1, 3 h stimulation)	activation of NF-κB compared with LPS (P-IκBα and IκBα levels) ([2]; THP-1, 3 h stimulation, concentration higher than 50 nM)
CCCCCCCCCCCCCC(=O)O[C@H](CCCCCCCCCCC)CC(=O)O[C@@H]1[C@@H](NC(=O)C[C@@H](CCCCCCCCCCC)OC(=O)CCCCCCCCCCC)[C@@H](O[C@H]2O[C@H](CO)[C@@H](OC(=O)C[C@@H](CCCCCCCCCCC)OC(=O)CCCCCCCCCCC)[C@H](O)[C@@H]2OC)O[C@H](CO)[C@H]1OP(=O)(O)O [Compound 3, 4-O-[(R)-3-(Dodecanoyloxy)tetradecanoyl]-2-O-methyl-α-D-mannopyranosyl-(1↔1)-2-deoxy-2-[(R)-3-(dodecanoyloxy)tetradecanoylamino]-4-O-phosphoryl-3-O-[(R)-3-(tetradecanoyloxy)tetradecanoyl]-α-D-glucopyranoside]	less pronounced activation marker profile			
CCCCCCCCCCCCCC(=O)O[C@H](CCCCCCCCCCC)CC(=O)O[C@@H]1[C@@H](NC(=O)C[C@@H](CCCCCCCCCCC)OC(=O)CCCCCCCCCCC)[C@@H](O[C@H]2O[C@H](COP(=O)(O)O)[C@@H](OC(=O)C[C@@H](CCCCCCCCCCC)OC(=O)CCCCCCCCCCC)[C@H](O)[C@@H]2OC)O[C@H](CO)[C@H]1OP(=O)(O)O [Compound 1, 4-O-[(R)-3-(Dodecanoyloxy)tetradecanoyl]-2-O-methyl-6-O-phosphoryl-α-D-mannopyranosyl-(1↔1)-2-deoxy-2-[(R)-3-(dodecanoyloxy)tetradecanoylamino]-4-O-phosphoryl-3-O-[(R)-3-(tetradecanoyloxy)tetradecanoyl]-α-D-glucopyranoside]	as potent as by LPS; also recorded: as potent as that with LPS	comparable	detectable after 3h stimulation	more potent
